Tests used:
RAR and RXR receptors = assay: Co-transfection assay, RAR and RXR receptors overall; assay type: cell-based; conditions: for potency profile versus 9-cis retinoic acid: pan-agonist compounds; for receptor subfamily selectivity: RAR versus RXR
Protocol: (§1) Utilizing the "cis-trans" or "co-transfection" assay described by Evans et al., Science, 240:889-95 (May 13, 1988), the disclosure of which is herein incorporated by reference, the retinoid compounds of the present invention were tested and found to have strong, specific activity as either selective RAR agonists, selective RXR agonists, or as pan-agonist activators of both RAR and RXR receptors. This assay is described in further detail in U.S. Pat. Nos. 4,981,784 and 5,071,773, the disclosures of which are incorporated herein by reference.
(§2) In the co-transfection assay, a cloned cDNA for an IR (e.g., human RARα, RARβ, RXRγ) under the control of a constitutive promoter (e.g., the SV 40 promoter) is introduced by transfection (a procedure to induce cells to take up foreign genes) into a background cell substantially devoid of endogenous IRs. This introduced gene directs the recipient cells to make the IR protein of interest. A second gene is also introduced (co-transfected) into the same cells in conjunction with the IR gene. This second gene, comprising the cDNA for a reporter protein, such as firefly luciferase (LUC), controlled by an appropriate hormone responsive promoter containing a hormone response element (HRE). This reporter plasmid functions as a reporter for the transcription-modulating activity of the target IR. Thus, the reporter acts as a surrogate for the products (mRNA then protein) normally expressed by a gene under control of the target receptor and its native hormone.
(§3) The co-transfection assay can detect small molecule agonists or antagonists of target IRs. Exposing the transfected cells to an agonist ligand compound increases reporter activity in the transfected cells. This activity can be conveniently measured, e.g., by increasing luciferase production, which reflects compound-dependent, IR-mediated increases in reporter transcription. […] . Increasing concentrations of a suspected antagonist will decrease the reporter signal (e.g., luciferase production). The co-transfection assay is therefore useful to detect both agonists and antagonists of specific IRs. Furthermore, it determines not only whether a compound interacts with a particular IR, but whether this interaction mimics (agonizes) or blocks (antagonizes) the effects of the native regulatory molecules on target gene expression, as well as the specificity and strength of this interaction.
To determine RAR and/or RXR agonist activity of the compounds of the present invention, the CV-1 cells were transiently transfected by calcium phosphate coprecipitation according to the procedure of Berger et al., 41 J.Steroid Biochem. Mol. Biol., 733 (1992) with the following receptor expressing plasmids: pRShRARα: Giguere et al., 330 Nature, 624 (1987); pRShRARβ and pRShRARγ, Ishikawa et al., 4 Mol. Endocrin., 837 (1990); pRShRXRα, Mangelsdorf et al., 345 Nature, 224 (1990); and pRSmRXRβ and pRSmRXRγ, Mangelsdorf et al., 6 Genes & Devel., 329 (1992), the disclosures of which are herein incorporated by reference. Each of these receptor expressing plasmids was co-transfected at a concentration of 5 ng/well, along with a basal reporter plasmid at 100 ng/well, the internal control plasmid pRS-β-Gal at 50 ng/well and filler DNA, pGEM at 45 ng/well.

RARs = assay: Co-transfection assay, RARs overall; assay type: cell-based, human
Protocol: as §1, §2
as §3, with “interaction. […]” for “interaction.”

potency profile versus 9-cis retinoic acid (RAR and RXR receptors) | receptor subfamily selectivity (RAR and RXR receptors) | SMILES | RAR activity (RARs)
superior potency profiles |  | CC(/C=C/CC1CCCc2cc3c(cc21)C(C)(C)CCC3(C)C)=C\C(=O)O (racemic) [Compound 124b, (2E,4E)-3-Methyl-6-(1,2,3,4,5,6,7,8-octahydro-5,5,8,8-tetramethylanthracen-1-yl)hexa-2,4-dienoic acid] | 
superior potency profiles |  | CC(/C=C/C=C1/CCOc2cc3c(cc21)C(C)(C)CCC3(C)C)=C\C(=O)O [Compound 144b] | extremely potent RAR active

The next lines start with the compound.

SMILES | potency profile versus 9-cis retinoic acid (RAR and RXR receptors) | receptor subfamily selectivity (RAR and RXR receptors) | RAR activity (RARs)
CC(/C=C/C=C1/CCCc2cc3c(cc21)C(C)(C)CCC3(C)C)=C\C(=O)O [Compound 101b, (2E,4E)-3-Methyl-6-[(Z)-3,4,5,6,7,8-hexahydro-5,5,8,8-tetramethyl-2H-anthracen-1-ylidene]hexa-2,4-dienoic acid] | superior potency profiles |  | extremely potent RAR active
CC(/C=C/C=C1\CCCc2cc3c(cc21)C(C)(C)CCC3(C)C)=C\C(=O)O [Compound 109b, (2E,4E)-3-Methyl-6-[(E)-3,4,5,6,7,8-hexahydro-5,5,8,8-tetramethyl-2H-anthracen-1-ylidene]hexa-2,4-dienoic acid] |  | RAR selective | extremely potent RAR active
CC(/C=C/C=C1\CCOc2cc3c(cc21)C(C)(C)CCC3(C)C)=C\C(=O)O [Compound 119b, (2E,4E)-3-Methyl-6-[(E)-2,3,6,7,8,9-hexahydro-6,6,9,9-tetramethyl-benzo[g]chromen-4-ylidene]hexa-2,4-dienoic acid] |  | RAR selective | extremely potent RAR active

From US5770378A, “Tricyclic retinoids, methods for their production and use” (Ligand Pharmaceuticals, Inc., priority 1995, dated 1998)
